Data from patent US10895019B2, “Encoded self-assembling chemical libraries (ESACHEL)” (Eidgenoessische Technische Hochschule Zurich, priority 2002, dated 2021).

What was measured:
[1] = molecular target: human carbonic anhydrase; experiment: carbonic anhydrase activity assay with substrate 4-Nitrophenylacetate (Pocker and Stone); format: biochemical; conditions: absorption at 400 nm, read-out: IC50 towards human carbonic anhydrase
Description: We measured the inhibitory concentration 50 [IC50] of 4-sulfonamido benzoic acid propylamide using an activity assay described by Pocker and Stone [(1967), Biochemistry 6, 668-678]. In short, we incubated carbonic anhydrase in separate wells of a transparent 96 well microtiter plate with different concentrations of the inhibitor and the substrate 4-Nitrophenylacetate. The proceeding of the reaction was monitored at the increase of absorption at 400 nm due to formation of the product 4-nitrophenol.

[2] = molecular target: streptavidin (Streptomyces avidinii, UniProt P22629); conditions: Green (1966); cited from earlier work

IC50 [1] [µM] | SMILES | affinity to streptavidin relative to biotin [2]
6 | CCCNC(=O)c1ccc(S(N)(=O)=O)cc1 [4-sulfonamido benzoic acid propylamide] | –
– | N=C1N[C@H]2[C@H](CS[C@H]2CCCCC(=O)O)N1 [Iminobiotin] | substantially reduced affinity
